Assay results: PMC5526604 (Journal of medicinal chemistry, 2017)
Like-named read-outs stand apart in the source and are kept apart here.

Assays:
HIV integrase = HIV integrase (Human immunodeficiency virus type 1 group M subtype B, UniProt P04585); test: HIV IN assay; assay type: biochemical, HIV-1
[1] = target: HIV RT-associated RNase H (Human immunodeficiency virus type 1 group M subtype B, UniProt P04585); conditions: biochemical
[2] = read-out: Biochemical Inhibition INST IC50, as relisted in Table 2

Compound	IC50 (HIV integrase)	IC50 (HIV integrase; [2])	selectivity of RNase H inhibition over INST inhibition [1]
O=C(Nc1ccc(-c2ccccc2)cc1)c1c(NCc2ccc(-c3ccccc3)cc2)[nH]c(=O)n(O)c1=O [Compound 10k, N-([1,1′-Biphenyl]-4-yl)-6-(([1,1′-biphenyl]-4-ylmethyl)amino)-3-hydroxy-2,4-dioxo-1,2,3,4-tetrahydropyrimidine-5-carboxamide]	> 100 µM	> 100 µM	–
COc1ccc(-c2ccc(NC(=O)c3c(Nc4ccc(-c5ccccc5)cc4)[nH]c(=O)n(O)c3=O)cc2)cc1 [Compound 10c, 6-([1,1′-Biphenyl]-4-ylamino)-3-hydroxy-N-(4′-methoxy-[1,1′-biphenyl]-4-yl)-2,4-dioxo-1,2,3,4-tetrahydropyrimidine-5-carboxamide]	> 100 µM	–	–
CCc1ccc(NC(=O)c2c(NCc3ccccc3)[nH]c(=O)n(O)c2=O)cc1 [Compound 10v, 6-(Benzylamino)-N-(4-ethylphenyl)-3-hydroxy-2,4-dioxo-1,2,3,4-tetrahydropyrimidine-5-carboxamide]	> 100 µM	> 100 µM	–
O=C(NCc1cccc(Cl)c1F)c1c(Nc2ccc(-c3ccccc3)cc2)[nH]c(=O)n(O)c1=O [Compound 10h, N-(3-Chloro-2-fluorobenzyl)-1-(hydroxy)-1,2,3,6-tetrahydro-2,6-dioxo-4-(biphenylamino)pyrimidine-5-carboxamide]	> 100 µM	–	–
O=C(NCc1ccc(-c2ccccc2)cc1)c1c(NCc2ccc(-c3ccccc3)cc2)[nH]c(=O)n(O)c1=O [Compound 10l]	> 100 µM	> 100 µM	–
O=C(Nc1ccccc1)c1c(NCc2ccccc2)[nH]c(=O)n(O)c1=O [Compound 10q, 6-(Benzylamino)-3-hydroxy-2,4-dioxo-N-phenyl-1,2,3,4-tetrahydropyrimidine-5-carboxamide]	> 100 µM	> 100 µM	–
O=C(Nc1ccc(-c2ccc(F)cc2)cc1)c1c(Nc2ccc(-c3ccccc3)cc2)[nH]c(=O)n(O)c1=O [Compound 10b, 6-([1,1′-Biphenyl]-4-ylamino)-N-(4′-fluoro-[1,1′-biphenyl]-4-yl)-3-hydroxy-2,4-dioxo-1,2,3,4-tetrahydropyrimidine-5-carboxamide]	> 100 µM	–	–
O=C(Nc1ccccc1)c1c(NCc2ccc(-c3ccccc3)cc2)[nH]c(=O)n(O)c1=O [Compound 10m, 6-(([1,1′-Biphenyl]-4-ylmethyl)amino)-3-hydroxy-2,4-dioxo-N-phenyl-1,2,3,4-tetrahydropyrimidine-5-carboxamide]	> 100 µM	> 100 µM	–
O=C(NCc1ccc(-c2ccccc2)cc1)c1c(NCc2ccccc2)[nH]c(=O)n(O)c1=O [Compound 10p, N-([1,1′-Biphenyl]-4-ylmethyl)-6-(benzylamino)-3-hydroxy-2,4-dioxo-1,2,3,4-tetrahydropyrimidine-5-carboxamide]	> 100 µM	> 100 µM	–
O=C(Nc1ccc(-c2ccccc2)cc1)c1c(Nc2ccc(-c3ccccc3)cc2)[nH]c(=O)n(O)c1=O [Compound 10a, N-([1,1′-Biphenyl]-4-yl)-6-([1,1′-biphenyl]-4-ylamino)-3-hydroxy-2,4-dioxo-1,2,3,4-tetrahydropyrimidine-5-carboxamide]	> 100 µM	–	–
O=C(NCc1ccccc1)c1c(Nc2ccccc2)[nH]c(=O)n(O)c1=O [Compound 10s, N-Benzyl-1-(hydroxy)-1,2,3,6-tetrahydro-2,6-dioxo-4-(phenylamino)pyrimidine-5-carboxamide]	–	–	~4 fold
O=C(NCc1ccc(F)cc1F)c1c(Nc2ccc(-c3ccccc3)cc2)[nH]c(=O)n(O)c1=O [Compound 10i, N-(2,4-Difluorobenzyl)-1-(hydroxy)-1,2,3,6-tetrahydro-2,6-dioxo-4-(biphenylamino) pyrimidine-5-carboxamide]	> 100 µM	> 100 µM	–
O=C(NCc1ccc(F)cc1)c1c(Nc2ccc(-c3ccccc3)cc2)[nH]c(=O)n(O)c1=O [Compound 10e, N-(4-Fluorobenzyl)-1-(hydroxy)-1,2,3,6-tetrahydro-2,6-dioxo-4-(biphenylamino)pyrimidine-5-carboxamide]	> 100 µM	–	–
O=C(Nc1ccc(-c2ccccc2)cc1)c1c(NCc2ccccc2)[nH]c(=O)n(O)c1=O [Compound 10o, N-([1,1′-Biphenyl]-4-yl)-6-(benzylamino)-3-hydroxy-2,4-dioxo-1,2,3,4-tetrahydropyrimidine-5-carboxamide]	> 100 µM	> 100 µM	–
O=C(NCc1ccccc1F)c1c(Nc2ccc(-c3ccccc3)cc2)[nH]c(=O)n(O)c1=O [Compound 10g, N-(2-Fluorobenzyl)-1-(hydroxy)-1,2,3,6-tetrahydro-2,6-dioxo-4-(biphenylamino)pyrimidine-5-carboxamide]	> 100 µM	–	–
O=C(Nc1ccc(C(F)(F)F)cc1)c1c(NCc2ccccc2)[nH]c(=O)n(O)c1=O [Compound 10y, 6-(Benzylamino)-3-hydroxy-2,4-dioxo-N-(4-(trifluoromethyl)phenyl)-1,2,3,4-tetrahydropyrimidine-5-carboxamide]	> 100 µM	> 100 µM	–
O=C(NCc1cccc(F)c1)c1c(Nc2ccc(-c3ccccc3)cc2)[nH]c(=O)n(O)c1=O [Compound 10f, N-(3-Fluorobenzyl)-1-(hydroxy)-1,2,3,6-tetrahydro-2,6-dioxo-4 (biphenylamino)pyrimidine-5-carboxamide]	> 100 µM	> 100 µM	–
O=C(NCc1cc(F)ccc1F)c1c(Nc2ccc(-c3ccccc3)cc2)[nH]c(=O)n(O)c1=O [Compound 10j, N-(2,5-Difluorobenzyl)-1-(hydroxy)-1,2,3,6-tetrahydro-2,6-dioxo-4-(biphenylamino) pyrimidine-5-carboxamide]	> 100 µM	> 100 µM	–
